# Assay results reported in PMC9424909, “Rutin alleviated acrolein-induced cytotoxicity in Caco-2 and GES-1 cells by forming a cyclic hemiacetal product” (Frontiers in Nutrition, 2022).
# pIC50: −log10 of the molar value.
# What was measured:
# Caco-2 cells [1] = assay: cell survival, CCK-8 assay; type: cell-based, human; conditions: for cell viability (viable cell number): incubation 24 h
# Protocol: (§1) The Caco-2 cell line and GES-1 cell line were obtained from iCell Bioscience (Shanghai, China). As described by Chai et al. ([40]) with a bit modification, the Caco-2 cells were cultured within a medium composed of DMEM supplemented with 1% (v/v) NEAA, 10% (v/v) FBS, and penicillin and streptomycin (100 U/mL). GES-1 cells were cultivated according to Xu et al. ([41]) with slight modifications as follows: DMEM medium including 1% (v/v) NEAA, 10% (v/v) FBS, and penicillin and streptomycin (100 U/mL). Cells were all maintained in a humidified incubator containing 5% CO2 and 95% air at 37°C.
# (§2) The effects of ACR and RAC on cell survival (both Caco-2 and GES-1 cells) were measured by the CCK-8 assay ([41]). Briefly, cells (1 × 10^4 cells/well) were seeded into a 96-well plate and cultivated overnight. […] After cells were rinsed twice with PBS and resuspended in 100 μL of DMEM supplemented with 10% FBS, 10 μL of CCK-8 solution was added into each well and the plate was maintained for 1 h in the incubator. The plate was read at 450 nm on a microplate reader (BioTek, Epoch 2, USA), and all experiments were performed thrice. Cell viability was expressed as a percentage of the control group as shown below:
# (§3) Cell viability (%) = A sample/A control × 100%
# (§4) Where A sample was the absorbance (Abs) of the cells incubated with different concentrations of sample solutions, and A control was the Abs of the cells incubated without sample solution.
# GES-1 cells [2] = assay: cell survival, CCK-8 assay; type: cell-based, human; conditions: for cell viability (viable cell number): incubation 24 h
# Protocol: as §1, §2, §3, §4
# Caco-2 cells [3] = assay: apoptosis assay, Annexin-V FITC/PI flow cytometry; type: cell-based, human; conditions: for apoptotic cells / number of viable cells: 24 h
# Protocol: as §1
# (§5) Cell apoptosis assay was conducted in refer to Abas et al. ([42]) with modifications. In short, cells at a density of 1 × 10^4 cells/well were seeded in 96-well plates and incubated overnight, followed by exposure to different concentrations of ACR and RAC for another 24 h. After that, cells were rinsed twice with PBS, resuspended in 200 μL of Annexin-binding buffer, and finally stained with Annexin-V FITC and PI (5 μL each) for 10 min at 37°C in darkness. After adding 400 μL of Annexin-binding buffer, the signal intensity was measured using a FACSCalibur (Becton Dickinson, CA, USA) flow cytometry within 1 h, and data was analyzed with FlowJo software (Ashland, OR, USA).
# GES-1 cells [4] = assay: apoptosis assay, Annexin-V FITC/PI flow cytometry; type: cell-based, human; conditions: 24 h
# Protocol: as §1, §5
# Caco-2 cells [5] = assay: JC-1 staining, mitochondrial membrane potential (MMP); type: cell-based, human; conditions: 24 h
# Protocol: as §1
# (§6) After incubation with different concentrations of samples, the changes of MMP in Caco-2 and GES-1 cells were measured in accordance with Liu et al., with slight modifications ([43]). In brief, cells (1 × 10^4 cells/well) were exposed to different concentrations of ACR and RAC for 24 h, respectively. Then 500 μL of JC-1 staining solution was added into each well and the plate was further incubated at 37°C for 15 min. Cells were then rinsed twice with 1 mL of staining buffer and resuspended with 500 μL of staining buffer prior to MMP determination in the flow cytometry.
# GES-1 cells [6] = assay: as above; type: cell-based, human; conditions: 24 h
# Protocol: as §1, §6
# [7] = elimination of ACR by rutin in PBS (DNPH derivatization, HPLC); conditions: for amount of ACR reduced compared with the initial content / content of ACR (residual) / content of residual ACR: 2 h; for content of ACR (residual): rutin/ACR 1/1, initial content 200 μmol
# Protocol: In the present study, three variables were taken into consideration, namely temperature (40–100°C), reaction duration (0.5–8 h), and molar ratio of rutin to ACR (from 1/2 to 4/1), and the remaining level of ACR was determined. A mixture of rutin, ACR, and 20 mL of PBS was prepared in a 50 mL three-necked flask and reacted under light-proof conditions. The different variables were studied separately while keeping other conditions constant as follows: temperature of 80°C, reaction time of 2 h, and the molar ratio of rutin/ACR of 1/1. At the end of each reaction, ACR was derivatized with DNPH, and its content was determined as below.
# The stock solution equivalent to ACR concentration of […] was prepared by dissolving 10.7 mg of ACR-DNPH standard with 25 mL of acetonitrile (ACN). And the ACR-DNPH standard curve (2 to 100 μg/mL) was established by serial dilutions of the stock solution. The HPLC conditions were as below. An Agilent 1,260 Infinity II HPLC system (Agilent Technologies, Palo Alto, CA) equipped with a DAD and a Zorbax SB-C18 column (250 × 4.6 mm; 5 μm; Agilent Technologies) was utilized for the determination of ACR-DNPH. The separation was conducted under isocratic conditions by introducing 50% A (water) and 50% B (ACN) at a flow rate of 1.0 mL/min for 15 min. The temperature was 35°C, the injection volume was 20 μL, and the detection wavelength was set at 365 nm. According to the retention time as well as the peak area, the standard curve of ACR-DNPH derivates was obtained.
# DNPH was recrystallized as the followings before use: excess DNPH was added into 200 mL of methanol (MeOH) heating for 1 h, and the supernatant was collected and further heated at 60°C to remove 95% of the solvent; the crystals were then washed twice with 100 mL of MeOH, transferred to another clean beaker, and co-heated with 200 mL of MeOH; and the resulting crystal was stored under seal. The 0.1 M DNPH solution was prepared by dissolving 5.0548 g of the purified DNPH in 250 mL of ACN containing 5 mL of 10% phosphoric acid solution.
# Derivatization of ACR with DNPH was conducted in accordance with Reilly et al. ([36]). In short, one milliliter of each sample was incubated with 1 mL of diluted DNPH solution (0.01 M) for 40 min at 40°C, followed by extraction with 10 mL of MeOH/water (75: 25, v/v). After centrifugation (6,000 rpm, 10 min), the supernatant was collected and was further extracted with 10 mL of dichloromethane to obtain the DNPH derivatives. Prior to HPLC analysis as above, the DNPH derivatives were re-dissolved in 1 mL of HPLC grade ACN and passed through a 0.45 μm filter (Bie & Berntsen, Rødovre, Denmark).
smiles,measurement,setting,value
"C=CC=O [ACR, Acrolein]",cell viability (viable cell number),"Caco-2 cells [1]; Caco-2, 20 μM",31.83%
same,cell viability (viable cell number),"Caco-2 cells [1]; Caco-2, 140 μM",6.97%
same,pIC50,"Caco-2 cells [1]; Caco-2, CCK-8, read-out: IC50 (cytotoxicity)",> 4.70
same,cell viability (viable cell number),"GES-1 cells [2]; GES-1, 20 μM",49.57%
same,cell viability (viable cell number),"GES-1 cells [2]; GES-1, 140 μM",11.22%
same,pIC50,"GES-1 cells [2]; GES-1, CCK-8, read-out: IC50 (cytotoxicity)",> 4.70
same,decrease of viable cell number,"GES-1 cells [2]; GES-1, up to 140 μM, 24 h as printed",88.78%
same,apoptotic cells,"Caco-2 cells [3]; Caco-2, 20 μM",12.19%
same,number of viable cells,"Caco-2 cells [3]; Caco-2, 20 μM",87.5%
same,apoptotic cells,"Caco-2 cells [3]; Caco-2, 40 μM",28.59%
same,number of viable cells,"Caco-2 cells [3]; Caco-2, 40 μM",71.3%
same,"apoptotic rate, times higher than that of the same concentration of RAC","Caco-2 cells [3]; Caco-2, 60 μM",5.5 times
same,apoptotic cells,"Caco-2 cells [3]; Caco-2, 60 μM",59.50%
same,number of viable cells,"Caco-2 cells [3]; Caco-2, 60 μM",40.0%
same,apoptotic rate,"GES-1 cells [4]; GES-1, 20 μM",16.28%
same,apoptotic rate,"GES-1 cells [4]; GES-1, 60 μM",68.10%
same,ratio of red/green fluorescence intensity,"Caco-2 cells [5]; Caco-2, 20 μM",5.32
same,ratio of red/green fluorescence intensity,"Caco-2 cells [5]; Caco-2, 20 μM, listed as Acrolein",5.32 ± 0.17
same,ratio of red/green fluorescence intensity,"Caco-2 cells [5]; Caco-2, 40 μM",2.88 ± 0.09
same,ratio of red/green fluorescence intensity,"Caco-2 cells [5]; Caco-2, 60 μM",1.97
same,ratio of red/green fluorescence intensity,"Caco-2 cells [5]; Caco-2, 60 μM, listed as Acrolein",1.97 ± 0.06
same,ratio of red/green fluorescence intensity,"GES-1 cells [6]; GES-1, 20 μM",5.68
same,ratio of red/green fluorescence intensity,"GES-1 cells [6]; GES-1, 20 μM, listed as Acrolein",5.68 ± 0.24
same,ratio of red/green fluorescence intensity,"GES-1 cells [6]; GES-1, 40 μM",4.29 ± 0.17
same,ratio of red/green fluorescence intensity,"GES-1 cells [6]; GES-1, 60 μM",2.13
same,ratio of red/green fluorescence intensity,"GES-1 cells [6]; GES-1, 60 μM, listed as Acrolein",2.13 ± 0.10
"C[C@@H]1O[C@@H](OC[C@H]2O[C@@H](Oc3c(-c4ccc(O)c(O)c4)oc4cc(O)cc(O)c4c3=O)[C@H](O)[C@@H](O)[C@@H]2O)[C@H](O)[C@H](O)[C@H]1O [rutin, quercetin 3-O-rhamnosylglucoside]",amount of ACR reduced compared with the initial content,"[7]; 40°C, rutin/ACR 1/1",43.36%
same,content of ACR (residual),[7]; 40°C,113.28 µmol
same,amount of ACR reduced compared with the initial content,"[7]; 60°C, rutin/ACR 1/1",82.05%
same,content of ACR (residual),[7]; 60°C,35.9 µmol
same,amount of ACR reduced compared with the initial content,"[7]; 80°C, rutin/ACR 1/1",92.56%
same,content of ACR (residual),[7]; 80°C,14.88 µmol
same,amount of ACR reduced compared with the initial content,"[7]; 90°C, rutin/ACR 1/1",96.09%
same,content of ACR (residual),[7]; 90°C,7.83 µmol
same,amount of ACR reduced compared with the initial content,"[7]; 100°C, rutin/ACR 1/1",98.20%
same,content of ACR (residual),[7]; 100°C,3.60 µmol
same,ACR removed,"[7]; after 8 h of reaction, 80°C, rutin/ACR 1/1",more than 94%
same,content of residual ACR,"[7]; molar ratio rutin/ACR 1/2, 80°C",18.54 µmol
same,content of residual ACR,"[7]; molar ratio rutin/ACR 4/1, 80°C",6.69 µmol
